Laboratory results reported in PubChem BioAssay AID1918936 (Molecular Pharmacology Branch, DTP, NCI, 2023).

Tested on: 349418-098-R-PDC complex spheroid viability
Assay: Anticancer human tumor 349418-098-R-PDC patient-derived lung adenocarcinoma cell line growth inhibition
Details: for IC50: curve of first compound; for viability, T/C: stronger effect = lower value
Outline: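 Complex spheroids of tumor cells with HUVEC and human MSCs, exposed to iadademstat combined with other agents. Each agent tested in half-log steps from near clinical Cmax (else 10 microM top), DMSO ≤0.25%.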

[1] = second compound 0.1 µM, first compound 0.0316 µM
[2] = second compound 0.1 µM, first compound 0.1 µM
[3] = second compound 0.316 µM, first compound 0.0316 µM
[4] = second compound 0.316 µM, first compound 0.1 µM
[5] = second compound 1 µM, first compound 0.0316 µM
[6] = second compound 1 µM, first compound 0.1 µM
[7] = second compound 3.16 µM, first compound 0.0316 µM
[8] = second compound 3.16 µM, first compound 0.1 µM
[9] = second compound 10 µM, first compound 0.0316 µM
[10] = second compound 10 µM, first compound 0.1 µM
[11] = second compound 0.1 µM, first compound 0.000949 µM
[12] = second compound 0.1 µM, first compound 0.003 µM
[13] = second compound 0.1 µM, first compound 0.00949 µM
[14] = second compound 0.1 µM, first compound 0.03 µM
[15] = second compound 0.1 µM, first compound 0.0949 µM
[16] = second compound 0.1 µM, first compound 0.3 µM
[17] = second compound 0.316 µM, first compound 0.000949 µM
[18] = second compound 0.316 µM, first compound 0.003 µM
[19] = second compound 0.316 µM, first compound 0.00949 µM
[20] = second compound 0.316 µM, first compound 0.03 µM
[21] = second compound 0.316 µM, first compound 0.0949 µM
[22] = second compound 0.316 µM, first compound 0.3 µM
[23] = second compound 1 µM, first compound 0.000949 µM
[24] = second compound 1 µM, first compound 0.003 µM
[25] = second compound 1 µM, first compound 0.00949 µM
[26] = second compound 1 µM, first compound 0.03 µM
[27] = second compound 1 µM, first compound 0.0949 µM
[28] = second compound 1 µM, first compound 0.3 µM
[29] = second compound 3.16 µM, first compound 0.000949 µM
[30] = second compound 3.16 µM, first compound 0.003 µM
[31] = second compound 3.16 µM, first compound 0.00949 µM
[32] = second compound 3.16 µM, first compound 0.03 µM
[33] = second compound 3.16 µM, first compound 0.0949 µM
[34] = second compound 3.16 µM, first compound 0.3 µM
[35] = second compound 10 µM, first compound 0.000949 µM
[36] = second compound 10 µM, first compound 0.003 µM
[37] = second compound 10 µM, first compound 0.00949 µM
[38] = second compound 10 µM, first compound 0.03 µM
[39] = second compound 10 µM, first compound 0.0949 µM
[40] = second compound 10 µM, first compound 0.3 µM
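Also: spheroids exposed to agents for seven days before readout.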
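For viability, T/C in this document: 100% = DMSO vehicle control wells.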

CC(C)CC(NC(=O)C(Cc1ccccc1)NC(=O)c1cnccn1)B(O)O (stereo not given) + NC1CCC(NC2CC2c2ccccc2)CC1
IC50 (second compound 0.1 µM): < 0.316 nM
IC50 (second compound 0.316 µM): < 0.316 nM
IC50 (second compound 1 µM): < 0.316 nM
IC50 (second compound 3.16 µM): < 0.316 nM
IC50 (second compound 10 µM): < 0.316 nM
viability, T/C (second compound 0.1 µM, first compound 0.000316 µM): 9.12%
viability, T/C (second compound 0.1 µM, first compound 0.001 µM): 2.17%
viability, T/C (second compound 0.1 µM, first compound 0.00316 µM): 1.09%
viability, T/C (second compound 0.1 µM, first compound 0.01 µM): 0.81%
viability, T/C [1]: 0.69%
viability, T/C [2]: 0.6%
viability, T/C (second compound 0.316 µM, first compound 0.000316 µM): 7.64%
viability, T/C (second compound 0.316 µM, first compound 0.001 µM): 2.21%
viability, T/C (second compound 0.316 µM, first compound 0.00316 µM): 1.14%
viability, T/C (second compound 0.316 µM, first compound 0.01 µM): 0.67%
viability, T/C [3]: 0.64%
viability, T/C [4]: 0.58%
viability, T/C (second compound 1 µM, first compound 0.000316 µM): 9.06%
viability, T/C (second compound 1 µM, first compound 0.001 µM): 1.64%
viability, T/C (second compound 1 µM, first compound 0.00316 µM): 0.88%
viability, T/C (second compound 1 µM, first compound 0.01 µM): 0.64%
viability, T/C [5]: 0.7%
viability, T/C [6]: 0.62%
viability, T/C (second compound 3.16 µM, first compound 0.000316 µM): 8.64%
viability, T/C (second compound 3.16 µM, first compound 0.001 µM): 1.66%
viability, T/C (second compound 3.16 µM, first compound 0.00316 µM): 0.69%
viability, T/C (second compound 3.16 µM, first compound 0.01 µM): 0.63%
viability, T/C [7]: 0.46%
viability, T/C [8]: 0.51%
viability, T/C (second compound 10 µM, first compound 0.000316 µM): 6.88%
viability, T/C (second compound 10 µM, first compound 0.001 µM): 1.23%
viability, T/C (second compound 10 µM, first compound 0.00316 µM): 0.77%
viability, T/C (second compound 10 µM, first compound 0.01 µM): 0.45%
viability, T/C [9]: 0.75%
viability, T/C [10]: 0.41%

CCc1c2c(nc3ccc(O)cc13)-c1cc3c(c(=O)n1C2)COC(=O)[C@]3(O)CC + NC1CCC(NC2CC2c2ccccc2)CC1
IC50 (second compound 0.1 µM): < 0.949 nM
IC50 (second compound 0.316 µM): < 0.949 nM
IC50 (second compound 1 µM): < 0.949 nM
IC50 (second compound 3.16 µM): < 0.949 nM
IC50 (second compound 10 µM): < 0.949 nM
viability, T/C [11]: 4.09%
viability, T/C [12]: 2.43%
viability, T/C [13]: 2.12%
viability, T/C [14]: 1.2%
viability, T/C [15]: 1.37%
viability, T/C [16]: 1.52%
viability, T/C [17]: 3.85%
viability, T/C [18]: 2.61%
viability, T/C [19]: 2.07%
viability, T/C [20]: 1.29%
viability, T/C [21]: 1.05%
viability, T/C [22]: 1.44%
viability, T/C [23]: 4.08%
viability, T/C [24]: 2.65%
viability, T/C [25]: 1.89%
viability, T/C [26]: 1.41%
viability, T/C [27]: 1.14%
viability, T/C [28]: 1.59%
viability, T/C [29]: 3.68%
viability, T/C [30]: 2.54%
viability, T/C [31]: 1.99%
viability, T/C [32]: 1.37%
viability, T/C [33]: 1.05%
viability, T/C [34]: 1.61%
viability, T/C [35]: 3.85%
viability, T/C [36]: 2.63%
viability, T/C [37]: 2.13%
viability, T/C [38]: 1.59%
viability, T/C [39]: 1.21%
viability, T/C [40]: 1.47%

Nc1ccccc1NC(=O)c1ccc(CNC(=O)OCc2cccnc2)cc1 + NC1CCC(NC2CC2c2ccccc2)CC1
IC50 (second compound 0.1 µM): 244 nM
IC50 (second compound 0.316 µM): 279 nM
IC50 (second compound 1 µM): 224 nM
IC50 (second compound 3.16 µM): 314 nM
IC50 (second compound 10 µM): 269 nM
viability, T/C [13]: 106%
viability, T/C [14]: 88.6%
viability, T/C [15]: 76.2%
viability, T/C [16]: 46.2%
viability, T/C (second compound 0.1 µM, first compound 0.949 µM): 15.4%
viability, T/C (second compound 0.1 µM, first compound 3 µM): 5.1%
viability, T/C [19]: 102%
viability, T/C [20]: 97.3%
viability, T/C [21]: 81.8%
viability, T/C [22]: 48.9%
viability, T/C (second compound 0.316 µM, first compound 0.949 µM): 15.4%
viability, T/C (second compound 0.316 µM, first compound 3 µM): 5.32%
viability, T/C [25]: 117%
viability, T/C [26]: 85.9%
viability, T/C [27]: 73.6%
viability, T/C [28]: 46.3%
viability, T/C (second compound 1 µM, first compound 0.949 µM): 15.9%
viability, T/C (second compound 1 µM, first compound 3 µM): 5.11%
viability, T/C [31]: 104%
viability, T/C [32]: 85.8%
viability, T/C [33]: 83.6%
viability, T/C [34]: 53%
viability, T/C (second compound 3.16 µM, first compound 0.949 µM): 15.6%
viability, T/C (second compound 3.16 µM, first compound 3 µM): 5.33%
viability, T/C [37]: 96.1%
viability, T/C [38]: 91.1%
viability, T/C [39]: 75.5%
viability, T/C [40]: 50.2%
viability, T/C (second compound 10 µM, first compound 0.949 µM): 12.7%
viability, T/C (second compound 10 µM, first compound 3 µM): 4.33%

Nc1ccn(C2OC(CO)C(O)C2(F)F)c(=O)n1 (stereo not given) + NC1CCC(NC2CC2c2ccccc2)CC1
IC50 (second compound 0.1 µM): < 0.949 nM
IC50 (second compound 0.316 µM): < 0.949 nM
IC50 (second compound 1 µM): < 0.949 nM
IC50 (second compound 3.16 µM): < 0.949 nM
IC50 (second compound 10 µM): < 0.949 nM
viability, T/C [11]: 4.87%
viability, T/C [12]: 4.56%
viability, T/C [13]: 4.21%
viability, T/C [14]: 3.79%
viability, T/C [15]: 4%
viability, T/C [16]: 3.98%
viability, T/C [17]: 4.61%
viability, T/C [18]: 4.85%
viability, T/C [19]: 4.32%
viability, T/C [20]: 4.15%
viability, T/C [21]: 4.03%
viability, T/C [22]: 3.47%
viability, T/C [23]: 4.81%
viability, T/C [24]: 4.98%
viability, T/C [25]: 5.25%
viability, T/C [26]: 4.25%
viability, T/C [27]: 3.86%
viability, T/C [28]: 3.77%
viability, T/C [29]: 5.14%
viability, T/C [30]: 4.79%
viability, T/C [31]: 5.19%
viability, T/C [32]: 4.55%
viability, T/C [33]: 4.08%
viability, T/C [34]: 3.79%
viability, T/C [35]: 4.89%
viability, T/C [36]: 5.31%
viability, T/C [37]: 4.83%
viability, T/C [38]: 4.8%
viability, T/C [39]: 4.86%
viability, T/C [40]: 3.79%

O=C(c1cc(Cc2n[nH]c(=O)c3ccccc23)ccc1F)N1CCN(C(=O)C2CC2)CC1 + NC1CCC(NC2CC2c2ccccc2)CC1
IC50 (second compound 0.1 µM): 4250 nM
IC50 (second compound 0.316 µM): 5900 nM
IC50 (second compound 1 µM): 4180 nM
IC50 (second compound 3.16 µM): 4910 nM
IC50 (second compound 10 µM): 2520 nM
viability, T/C [1]: 93.9%
viability, T/C [2]: 88.8%
viability, T/C (second compound 0.1 µM, first compound 0.316 µM): 82.6%
viability, T/C (second compound 0.1 µM, first compound 1 µM): 77.8%
viability, T/C (second compound 0.1 µM, first compound 3.16 µM): 51.7%
viability, T/C (second compound 0.1 µM, first compound 10 µM): 40.6%
viability, T/C [3]: 93.8%
viability, T/C [4]: 87.3%
viability, T/C (second compound 0.316 µM, first compound 0.316 µM): 82.4%
viability, T/C (second compound 0.316 µM, first compound 1 µM): 77.2%
viability, T/C (second compound 0.316 µM, first compound 3.16 µM): 59.5%
viability, T/C (second compound 0.316 µM, first compound 10 µM): 41.1%
viability, T/C [5]: 106%
viability, T/C [6]: 98.1%
viability, T/C (second compound 1 µM, first compound 0.316 µM): 79.4%
viability, T/C (second compound 1 µM, first compound 1 µM): 75.4%
viability, T/C (second compound 1 µM, first compound 3.16 µM): 62.2%
viability, T/C (second compound 1 µM, first compound 10 µM): 28.9%
viability, T/C [7]: 92.4%
viability, T/C [8]: 89%
viability, T/C (second compound 3.16 µM, first compound 0.316 µM): 87%
viability, T/C (second compound 3.16 µM, first compound 1 µM): 69.6%
viability, T/C (second compound 3.16 µM, first compound 3.16 µM): 64.6%
viability, T/C (second compound 3.16 µM, first compound 10 µM): 32.4%
viability, T/C [9]: 89.5%
viability, T/C [10]: 68.7%
viability, T/C (second compound 10 µM, first compound 0.316 µM): 64.8%
viability, T/C (second compound 10 µM, first compound 1 µM): 62.4%
viability, T/C (second compound 10 µM, first compound 3.16 µM): 48.7%
viability, T/C (second compound 10 µM, first compound 10 µM): 38.2%
